# From patent US20170209434A1, “PROTEIN PHOSPHATASE 2A INHIBITORS FOR TREATING MYELODYSPLASTIC SYNDROMES” (priority 2014, published 2017)
# How the values were obtained:
# del(5q) patient BM MNCs = assay: Apoptosis of del(5q) patient BM MNCs; format: cell-based
# Procedure: FIG. 6 is a bar graph showing percentage of primary BM MNCs from a Del(5q) patient undergoing apoptosis after treatment with 0.1 μM, 1.0 μM, or 10 μM lenalidomide (grey) or 0.1 μM, 1.0 μM, or 10 μM LB-100 (black), compared to a control.
# Namalwa cells [1] = assay: Cell cycle analysis of Namalwa cells treated with LB-100; format: cell-based; conditions: for G1 / G2/M / S / Percent G1: 24 hours
# Procedure: FIG. 1 is a bar graph showing percent of Namalwa cells in G1 arrest 24 hours after treatment with 0.1 μM, 1.0 μM or 10 μM LB-100 dissolved in DMSO (grey) or MSG (black) compared to control and vehicle.
# FIG. 2 is a bar graph showing percent of Namalwa cells in G1 arrest 24 hours after treatment with 0.1 μM, 1.0 μM or 10 μM LB-100 compared to control.
# non-del(5q) MDS = assay: Additional studies of efficacy in non-del(5q) MDS (Example 3); format: in vivo; conditions: subject afflicted with non-del(5q) MDS
# Procedure: (§1) Additional studies, similar to the aforementioned Phase I design, are conducted to evaluate the efficacy of LB-100, alone or in combination with lenalidomide, in patients with del(5q) MDS or non-del(5q) MDS.
# An amount of LB-100 is administered to a subject afflicted with non-del(5q) MDS. […] An amount of LB-100 in combination with lenalidomide is administered to a subject afflicted with non-del(5q) MDS.
# Namalwa cells [2] = assay: Apoptosis of Namalwa cells; format: cell-based; conditions: for Percent Apoptosis: dissolved in MSG
# Procedure: FIG. 3 is a bar graph showing percentage of Namalwa cells undergoing apoptosis after treatment with 0.1 μM, 1.0 μM or 10 μM LB-100 dissolved in DMSO (grey) or MSG (black) compared to control and vehicle.
# FIGS. 4A to 4D are a series of flow cytometry plots showing percentage of Namalwa cells undergoing apoptosis after treatment with control (FIG. 4A), 0.1 μM (FIG. 4B), 1.0 μM (FIG. 4C), or 10 μM (FIG. 4D) LB-100.
# HL60 cells = assay: MTT assay, HL60 cell proliferation; format: cell-based; conditions: 72 hours, significant difference at 1 μM
# Procedure: (§2) FIG. 7A is a graph showing proliferation of HL60 cells 72 hours after treatment with 0.001 μM, 0.01 μM, 0.1 μM, 1.0 μM, 10 μM, or 100 μM LB-100 (grey) or 0.001 μM, 0.01 μM, 0.1 μM, 1.0 μM, 10 μM, or 100 μM lenalidomide (black), compared to control or vehicle. FIGS. 7B to 7C are graphs showing proliferation of Namalwa cells 72 hours after treatment with 0.001 μM, 0.01 μM, 0.1 μM, 1.0 μM, 10 μM, or 100 μM LB-100 (♦), 0.001 μM, 0.01 μM, 0.1 μM, 1.0 μM, 10 μM, or 100 μM lenalidomide (▪), or 0.001 μM, 0.01 μM, 0.1 μM, 1.0 μM, 10 μM, or 100 μM cantharidin (▴), compared to control or vehicle.
# (§3) HL60 cells and U937 cells were compared (FIGS. 8A and 8B).
# [3] = system: MDS that is resistant to lenalidomide; assay: Additional studies of efficacy in lenalidomide-resistant MDS (Example 3); format: in vivo
# Procedure: as §1
# protein phosphatase 2A = protein phosphatase 2A (Homo sapiens, UniProt P67775); conditions: cited from earlier work
# Namalwa cells [4] = assay: MTT assay, Namalwa cell proliferation; format: cell-based; conditions: 72 hours
# Procedure: as §2, §3
# [5] = system: Non-del(5q) patient BM MNCs; assay: Apoptosis of non-del(5q) patient BM MNCs; format: cell-based; conditions: FIG. 5, 0.1-10 μM
# del(5q) MDS = assay: Additional studies of efficacy in del(5q) MDS (Example 3); format: in vivo; conditions: subject afflicted with del(5q) MDS
# Procedure: as §1
# An amount of LB-100 is administered to a subject afflicted with del(5q) MDS. […] An amount of LB-100 in combination with lenalidomide is administered to a subject afflicted with del(5q) MDS.
# del(5q) MDS patients = conditions: cited from earlier work
# non-del (5q) MDS = conditions: cited from earlier work
# protein phosphatase 1 = conditions: cited from earlier work
# Sequence of protein phosphatase 2A (P67775 whole entry): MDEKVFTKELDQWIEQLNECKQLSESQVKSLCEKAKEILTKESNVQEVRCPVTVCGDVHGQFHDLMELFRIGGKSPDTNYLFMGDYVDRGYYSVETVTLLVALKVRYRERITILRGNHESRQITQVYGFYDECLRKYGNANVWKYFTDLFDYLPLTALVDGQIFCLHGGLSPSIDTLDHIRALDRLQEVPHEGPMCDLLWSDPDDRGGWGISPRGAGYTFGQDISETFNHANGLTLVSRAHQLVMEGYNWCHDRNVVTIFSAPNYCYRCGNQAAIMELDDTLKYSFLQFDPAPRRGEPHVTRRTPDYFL
smiles,measurement,setting,value
CN1CCN(C(=O)C2C(C(=O)O)[C@H]3CC[C@@H]2O3)CC1 (stereo partly drawn) [LB100],"Apoptosis, dose dependence (in words)","del(5q) patient BM MNCs; FIG. 6, 0.1-10 μM",induced apoptosis in a dose dependent fashion
same,Apoptosis (in words),del(5q) patient BM MNCs; at 1 μM,mild increase in apoptosis
same,Cytotoxicity compared with lenalidomide (in words),del(5q) patient BM MNCs; at 10 μM,more cytotoxic than lenalidomide
same,G1,"Namalwa cells [1]; 0.1 μM, dissolved in DMSO",17.73%
same,G2/M,"Namalwa cells [1]; 0.1 μM, dissolved in DMSO",16.51
same,S,"Namalwa cells [1]; 0.1 μM, dissolved in DMSO",65.76
same,G1,"Namalwa cells [1]; 0.1 uM, dissolved in MSG",18.69%
same,G2/M,"Namalwa cells [1]; 0.1 uM, dissolved in MSG",17.93
same,S,"Namalwa cells [1]; 0.1 uM, dissolved in MSG",63.37
same,G1,"Namalwa cells [1]; 1.0 μM, dissolved in DMSO",18.38%
same,G2/M,"Namalwa cells [1]; 1.0 μM, dissolved in DMSO",18.22
same,S,"Namalwa cells [1]; 1.0 μM, dissolved in DMSO",63.41
same,G1,"Namalwa cells [1]; 1.0 uM, dissolved in MSG",41.48%
same,G2/M,"Namalwa cells [1]; 1.0 uM, dissolved in MSG",6.96
same,S,"Namalwa cells [1]; 1.0 uM, dissolved in MSG",51.56
same,G1,"Namalwa cells [1]; 10 μM, dissolved in DMSO",28.97%
same,G2/M,"Namalwa cells [1]; 10 μM, dissolved in DMSO",8.9
same,S,"Namalwa cells [1]; 10 μM, dissolved in DMSO",62.13
same,G1,"Namalwa cells [1]; 10 uM, dissolved in MSG",46.34%
same,G2/M,"Namalwa cells [1]; 10 uM, dissolved in MSG",8.5
same,S,"Namalwa cells [1]; 10 uM, dissolved in MSG",45.15
same,G2/M,"Namalwa cells [1]; Table 2, 0.1 μM",12.06%
same,Percent G1,"Namalwa cells [1]; Table 2, 0.1 μM",24.01%
same,S,"Namalwa cells [1]; Table 2, 0.1 μM",63.93%
same,G2/M,"Namalwa cells [1]; Table 2, 1.0 μM",20.8%
same,Percent G1,"Namalwa cells [1]; Table 2, 1.0 μM",31.35%
same,S,"Namalwa cells [1]; Table 2, 1.0 μM",47.85%
same,G2/M,"Namalwa cells [1]; Table 2, 10 μM",6.13%
same,Percent G1,"Namalwa cells [1]; Table 2, 10 μM",51.18%
same,S,"Namalwa cells [1]; Table 2, 10 μM",42.69%
same,"G1 arrest, dose dependence (in words)","Namalwa cells [1]; Table 2 and FIG. 2, 0.1-10 μM",led to G1 arrest in a dose-dependent fashion
same,G1 arrest (in words),Namalwa cells [1]; at 10 μM in DMSO,led to G1 arrest
same,G1 arrest (in words),Namalwa cells [1]; at 1 and 10 μM in MSG,led to G1 arrest
same,Efficacy in treating non-del(5q) MDS (in words),non-del(5q) MDS,effective to treat
same,Percent Apoptosis,Namalwa cells [2]; 0.1 μM,6.18%
same,Percent Apoptosis,Namalwa cells [2]; 1.0 μM,6.5%
same,Percent Apoptosis,Namalwa cells [2]; 10 μM,55.8%
same,Apoptosis (in words),Namalwa cells [2]; at 10 μM when dissolved in MSG,led to apoptosis
same,Proliferation in comparison to treatment with lenalidomide (in words),HL60 cells,significant decreased proliferation
same,Efficacy in treating MDS resistant to lenalidomide (in words),[3],effective to treat
same,PP2A inhibition (in words),protein phosphatase 2A,greater potency than lenalidomide
same,Proliferation in comparison to control (in words),Namalwa cells [4],significant decrease in proliferation
same,Apoptosis (in words),[5],did not lead to apoptosis
same,Efficacy in treating del(5q) MDS (in words),del(5q) MDS,effective to treat
"Nc1cccc2c1CN(C1CCC(=O)NC1=O)C2=O (stereo not drawn) [Lenalidomide, lenalidomide]","transfusion independence (TI), % of patients",del(5q) MDS patients; lower risk MDS patients with del(5q),67%
same,"duration of response, median",del(5q) MDS patients; patients with del5q MDS,2.5 years
same,"transfusion independence (TI), % of patients",non-del (5q) MDS,26%
"C=C1[C@@H](O)[C@@H]2O[C@]3(CC[C@H](/C=C/[C@@H](C)[C@@H]4CC(C)=C[C@@]5(O[C@H](C[C@@](C)(O)C(=O)O)CC[C@H]5O)O4)O3)CC[C@H]2O[C@@H]1[C@@H](O)C[C@H](C)[C@H]1O[C@@]2(CCCCO2)CC[C@H]1C [Okadaic acid, 9,10-Deepithio-9,10-didehydroacanthifolicin]",IC50,protein phosphatase 1,3 to 15 nM
same,IC50,protein phosphatase 2A,0.1 to 1 nM
same,"Selectivity over PP2B, PP2C and a range of other phosphatases (in words)",protein phosphatase 2A,highly selective
C[C@@]12C(=O)OC(=O)[C@]1(C)[C@H]1CC[C@@H]2O1 [cantharidin],PP2A inhibition (in words),protein phosphatase 2A,potent and selective inhibitor of PP2A
